Values after ≈ are worked out from the molar mass of the structure shown. Values joined by “and” are separate entries in the source; they are usually repeats but may differ in a detail not shown here. Equal values may be shown once. One block for each compound: values may come before it.
Assays:
Test in all cases: ≥ marks a high value that may be exact or a test limit, other limits are often not marked, values filed in µg/mL are converted to µM
[1] = tested on: Candida albicans ATCC 2002
[2] = tested on: Acinetobacter baumannii ATCC 19606
[3] = tested on: Escherichia coli ATCC 25922
[4] = tested on: Staphylococcus aureus ATCC 25923
[5] = tested on: Enterococcus faecalis ATCC 29212
[6] = tested on: Pseudomonas aeruginosa ATCC 27853
[7] = tested on: Staphylococcus epidermidis ATCC 12228
[8] = tested on: Salmonella enterica subsp. enterica serovar Typhimurium C77-31
[9] = tested on: Staphylococcus aureus ATCC 29213
Escherichia coli UB1005 = tested on: Escherichia coli UB1005
[10] = tested on: Staphylococcus aureus ATCC 6538
[11] = tested on: Pseudomonas aeruginosa ATCC 9027
[12] = tested on: Candida albicans ATCC 10231
[13] = tested on: Staphylococcus aureus NCTC 10788

SMILES: CSCC[C@H](NC(=O)[C@H](CCCCN)NC(=O)[C@H](CC(C)C)NC(=O)[C@H](CC(C)C)NC(=O)[C@H](Cc1cnc[nH]1)NC(=O)[C@@H]1CCCN1C(=O)[C@H](CC(C)C)NC(=O)[C@H](CC(C)C)NC(=O)[C@H](Cc1c[nH]c2ccccc12)NC(=O)[C@H](CC(C)C)NC(=O)[C@H](CCCCN)NC(=O)[C@H](CCC(=O)O)NC(=O)CNC(=O)[C@H](C)NC(=O)[C@@H](NC(=O)[C@H](C)N)C(C)C)C(=O)N[C@@H](CC(C)C)C(=O)N[C@@H](CC(C)C)C(=O)N[C@H](C(=O)N1CCC[C@H]1C(=O)N[C@H](C(=O)N1CCC[C@H]1C(N)=O)[C@@H](C)O)[C@@H](C)O [AVAGEKLWLLPHLLKMLLTPTP]
- MIC [2]: > 164 µM
- MIC [3]: > 164 µM
- MIC [4]: 164 µM (≈ 400 µg/mL)
- MIC [5]: 164 µM (≈ 400 µg/mL)
- MIC [6]: > 164 µM

SMILES: CC(C)C[C@H](NC(=O)[C@H](C)NC(=O)[C@H](CCCCN)NC(=O)[C@H](CCCCN)NC(=O)[C@H](CC(C)C)NC(=O)[C@H](Cc1ccccc1)NC(=O)[C@H](CCCCN)NC(=O)[C@H](C)NC(=O)[C@H](CC(C)C)NC(=O)[C@H](CC(C)C)NC(=O)[C@H](CCCCN)NC(=O)[C@H](C)NC(=O)[C@@H](N)Cc1ccccc1)C(N)=O [FAKLLAKFLKKAL]
- MIC [10]: 6.71 µM (≈ 9.99 µg/mL)
- MIC [11]: 134 µM (≈ 200 µg/mL)

SMILES: CC(C)C[C@H](NC(=O)[C@H](CCCCN)NC(=O)[C@H](CCCCN)NC(=O)[C@H](CC(C)C)NC(=O)[C@H](C)NC(=O)[C@H](CCCCN)NC(=O)[C@H](C)NC(=O)[C@H](CC(C)C)NC(=O)[C@H](CC(C)C)NC(=O)[C@H](CCCCN)NC(=O)[C@H](C)NC(=O)[C@@H](N)Cc1ccccc1)C(N)=O [FAKLLAKALKKL]
- MIC [10]: 7.44 µM (≈ 9.99 µg/mL)
- MIC [11]: 18.6 µM (≈ 25 µg/mL)

SMILES: CC(C)C[C@H](NC(=O)[C@H](C)NC(=O)[C@H](CCCCN)NC(=O)[C@H](CCCCN)NC(=O)[C@H](Cc1ccccc1)NC(=O)[C@H](C)NC(=O)[C@H](CCCCN)NC(=O)[C@H](C)NC(=O)[C@H](Cc1ccccc1)NC(=O)[C@H](CC(C)C)NC(=O)[C@H](CCCCN)NC(=O)[C@H](C)NC(=O)[C@@H](N)Cc1ccccc1)C(N)=O [FAKLFAKAFKKAL]
- MIC [10]: 67.4 µM (≈ 99.9 µg/mL)
- MIC [11]: 135 µM (≈ 200 µg/mL)

SMILES: CC(C)C[C@H](NC(=O)[C@H](Cc1ccccc1)NC(=O)[C@H](CCCCN)NC(=O)[C@H](CCCCN)NC(=O)[C@H](CC(C)C)NC(=O)[C@H](C)NC(=O)[C@H](CCCCN)NC(=O)[C@H](C)NC(=O)[C@H](CC(C)C)NC(=O)[C@H](CC(C)C)NC(=O)[C@H](CCCCN)NC(=O)[C@H](C)NC(=O)[C@@H](N)Cc1ccccc1)C(N)=O [FAKLLAKALKKFL]
- MIC [10]: 6.71 µM (≈ 9.99 µg/mL)
- MIC [11]: 67.1 µM (≈ 99.9 µg/mL)

SMILES: CC(C)C[C@H](NC(=O)[C@H](CC(C)C)NC(=O)[C@H](CO)NC(=O)CNC(=O)[C@H](CC(C)C)NC(=O)[C@H](CC(C)C)NC(=O)CNC(=O)[C@H](CC(C)C)NC(=O)[C@@H](N)Cc1ccccc1)C(N)=O [FLGLLGSLL]
- MIC [13]: ≥ 34 µM

Second part, the compound after the results:

- MIC [1]: ≥ 102 µM
SMILES: CC[C@H](C)[C@H](NC(=O)[C@@H](NC(=O)[C@@H](NC(=O)[C@@H]1CCCN1C(=O)[C@H](Cc1c[nH]c2ccccc12)NC(=O)[C@H](Cc1ccccc1)NC(=O)[C@H](CCCN=C(N)N)NC(=O)[C@H](CCCCN)NC(=O)[C@@H](NC(=O)[C@@H](N)CCCN=C(N)N)[C@@H](C)CC)C(C)C)C(C)C)C(=O)N[C@@H](CCCN=C(N)N)C(=O)O [RIKRFWPVVIR]

- MIC [3]: 1 µM and 2 µM
- MIC [7]: 2 µM (≈ 6.13 µg/mL)
- MIC [8]: 1 µM (≈ 3.06 µg/mL)
- MIC [4]: 4 µM (≈ 12.3 µg/mL)
- MIC [9]: 2 µM (≈ 6.13 µg/mL)
- MIC (Escherichia coli UB1005): 2 µM (≈ 6.13 µg/mL)
SMILES: CC[C@H](C)[C@H](NC(=O)[C@H](Cc1c[nH]c2ccccc12)NC(=O)[C@H](CCCCN)NC(=O)[C@H](CC(C)C)NC(=O)[C@@H](NC(=O)[C@H](CCCCN)NC(=O)CNC(=O)[C@@H](NC(=O)[C@H](CCCCN)NC(=O)[C@H](CCCCN)NC(=O)[C@H](CC(C)C)NC(=O)[C@H](CCCN=C(N)N)NC(=O)[C@H](CCCCN)NC(=O)[C@H](CCCN=C(N)N)NC(=O)[C@@H](NC(=O)[C@H](CCCCN)NC(=O)[C@H](CCCCN)NC(=O)[C@H](CCCN=C(N)N)NC(=O)[C@H](CC(C)C)NC(=O)[C@H](CCCN=C(N)N)NC(=O)[C@H](CCCN=C(N)N)NC(=O)[C@H](Cc1ccccc1)NC(=O)[C@H](CCCN=C(N)N)NC(=O)CN)[C@@H](C)O)[C@@H](C)CC)C(C)C)C(N)=O [GRFRRLRKKTRKRLKKIGKVLKWI]

- MIC [3]: 16 µM (≈ 27.6 µg/mL)
- MIC [7]: 64 µM (≈ 110 µg/mL)
- MIC [8]: ≥ 64 µM
- MIC [4]: > 128 µM
- MIC [9]: 64 µM (≈ 110 µg/mL)
- MIC (Escherichia coli UB1005): ≥ 32 µM
SMILES: CC(C)C[C@H](NC(=O)[C@H](CCCN=C(N)N)NC(=O)[C@H](CCCCN)NC(=O)[C@H](Cc1c[nH]c2ccccc12)NC(=O)[C@@H](NC(=O)[C@H](CCCCN)NC(=O)[C@H](CCCCN)NC(=O)[C@H](CCCN=C(N)N)NC(=O)[C@H](CC(C)C)NC(=O)[C@H](CCCN=C(N)N)NC(=O)[C@@H](N)CCCN=C(N)N)[C@@H](C)O)C(=O)N[C@@H](Cc1c[nH]c2ccccc12)C(N)=O [RRLRKKTWKRLW]

- MIC [9]: 2.28 µM (≈ 4.9 µg/mL)
- MIC [6]: 5.27 µM (≈ 11.3 µg/mL)
- MIC [12]: 67.3 µM (≈ 144 µg/mL)
SMILES: CC[C@H](C)[C@H](NC(=O)[C@H](CC(C)C)NC(=O)[C@H](CC(C)C)NC(=O)[C@@H]1CCCN1C(=O)[C@H](CCCCN)NC(=O)[C@H](CC(C)C)NC(=O)[C@H](CCCCN)NC(=O)[C@@H]1CCCN1C(=O)[C@H](CC(C)C)NC(=O)[C@H](CC(C)C)NC(=O)[C@H](CC(C)C)NC(=O)[C@H](CCCCN)NC(=O)[C@H](CC(C)C)NC(=O)[C@H](CC(C)C)NC(=O)[C@H](CCCCN)NC(=O)[C@@H](N)Cc1ccc(O)cc1)C(=O)N[C@@H](CCCCN)C(=O)N[C@@H](CC(C)C)C(N)=O [YKLLKLLLPKLKPLLIKL]

- MIC [1]: 25.7 µM (≈ 56.3 µg/mL)
SMILES: CC[C@H](C)[C@H](NC(=O)[C@H](C)NC(=O)[C@H](CCCN=C(N)N)NC(=O)[C@H](Cc1ccc(O)cc1)NC(=O)[C@H](CC(C)C)NC(=O)[C@H](CC(N)=O)NC(=O)[C@H](Cc1ccc(O)cc1)NC(=O)CNC(=O)[C@H](C)NC(=O)[C@@H](NC(=O)[C@@H](NC(=O)[C@@H](NC(=O)[C@H](CCCN=C(N)N)NC(=O)[C@@H](NC(=O)[C@@H](NC(=O)[C@@H](N)C(C)C)C(C)C)[C@@H](C)CC)[C@@H](C)O)C(C)C)C(C)C)C(=O)N[C@@H](CCCCN)C(=O)N[C@@H](CCCCN)C(=O)N[C@@H](CCCCN)C(=O)O [VVIRTVVAGYNLYRAIKKK]

- MIC [1]: ≥ 35.8 µM
SMILES: CC[C@H](C)[C@H](NC(=O)[C@H](C)NC(=O)[C@H](CCCN=C(N)N)NC(=O)[C@H](Cc1ccc(O)cc1)NC(=O)[C@H](CC(C)C)NC(=O)[C@H](CC(N)=O)NC(=O)[C@H](Cc1ccc(O)cc1)NC(=O)CNC(=O)[C@H](C)NC(=O)[C@@H](NC(=O)[C@@H](NC(=O)[C@@H](NC(=O)[C@H](CCCN=C(N)N)NC(=O)[C@@H](NC(=O)[C@@H](N)C(C)C)[C@@H](C)CC)[C@@H](C)O)C(C)C)C(C)C)C(=O)N[C@@H](CCCCN)C(=O)N[C@@H](CCCCN)C(=O)N[C@@H](CCCCN)C(=O)O [VIRTVVAGYNLYRAIKKK]

- MIC [2]: > 117 µM
- MIC [3]: 58.7 µM (≈ 63.9 µg/mL)
- MIC [4]: 117 µM (≈ 128 µg/mL)
- MIC [6]: 7.34 µM (≈ 7.99 µg/mL)
SMILES: CC(C)C[C@H](NC(=O)[C@H](CC(C)C)NC(=O)[C@H](CCCCN)NC(=O)[C@H](CCCCN)NC(=O)[C@H](CC(C)C)NC(=O)[C@H](CO)NC(=O)[C@H](CCCCN)NC(=O)[C@H](CC(C)C)NC(=O)[C@@H](N)Cc1ccccc1)C(N)=O [FLKSLKKLL]

From DBAASP
